Earlier results, collected in patent US7022306B1, “Process for the production of hydrogen” (UOP LLC, priority 2003, dated 2006).
Read-outs that look alike come from different tables or passages of the source.

What was measured:
Rat [1] = tested on: Rat
Rat [2] = tested on: Rat; remark: listed apart in the source

In the case of `CCCC` [Butane], the “Toxicity LC50 (mg/liter) Inhalation-Rat” value (Rat [1]; for 4 hours) is listed as 658 for 4 hours mg/liter.

In the case of `CC(C)O` [Isopropanol], the “Toxicity LD50 (mg/kg) Oral-Rat” value (Rat [2]) is given as 5045 mg/kg.

For `CC(C)OC(C)C` [Isopropylether], the “Toxicity LD50 (mg/kg) Oral-Rat” value (Rat [2]) is given as 8470 mg/kg.

In the case of `C` [Methane], the “Toxicity LC50 (mg/liter) Inhalation-Rat” value (Rat [1]) is given as >5 mg/L.

For `CCCCC` [Pentane], the “Toxicity LD50 (mg/kg) Oral-Rat” value (Rat [2]) is given as >2000 mg/kg.

For `OC[C@@H](O)[C@@H](O)[C@H](O)[C@@H](O)CO` [Sorbitol], the “Toxicity LD50 (mg/kg) Oral-Rat” value (Rat [2]) is given as 15900 mg/kg.
